According to PubChem BioAssay AID463179 (Southern Research Specialized Biocontainment Screening …, 2010):
Calls of active or inactive are those of the source. How the calls were made is not given here.

Experiments:
[1] = tested on: Salmonella Typhi PhoP-promoter GFP reporter, fluorescence, 4 h; assay: Inhibitors of PhoP regulon, Salmonella typhi GFP reporter, confirmatory dose response (AID 463179)
[2] = as above; details: Salmonella Typhi PhoP-promoter GFP reporter, fluorescence, 4 h; at 150 µM (top of the series)

Row | SMILES | IC50 [1] [µM] | inhibition [2]
1 | Cc1ccc(C2Sc3ccccc3N=C3c4ccccc4CC32)cc1 (centres undefined) | 2.67 | –
2 | O=C1C2=C(Nc3ccccc3SC2c2ccc(Cl)cc2)c2ccccc21 (centres undefined) | – | 18% (inactive)
3 | O=C1C2=C(Nc3ccccc3SC2c2cccc(Br)c2)c2ccccc21 (centres undefined) | – | -12.2% (inactive)
4 | Clc1ccc(C2Sc3ccccc3N=C3c4ccccc4CC32)cc1 (centres undefined) | 6.26 | –
